Values after ≈ are worked out from the molar mass of the structure shown.
What was measured:
[1] = test system: Entercoccus gallinarum 245; test: MIC, standard broth micro-dilution assay; type: cell-based
Method: (§1) The formula I compounds have in vitro and in vivo activity against Gram-positive pathogenic bacteria. The MIC's were determined using a standard broth micro-dilution assay.

[2] = test system: Entercoccus faecalis 2041; test: MIC, standard broth micro-dilution assay; type: cell-based
Method: as §1

| Compound | MIC [1] | MIC [2] |
| --- | --- | --- |
| CNC(CC(C)C)C(=O)NC1C(=O)NC(CC(N)=O)C(=O)NC2C(=O)NC3C(=O)NC(C(=O)NC(C(=O)O)c4cc(O)cc(O)c4-c4cc3ccc4O)C(OC3CC(C)(N)C(O)C(C)O3)c3ccc(c(Cl)c3)Oc3cc2cc(c3OC2OC(CO)C(O)C(O)C2OC2CC(C)(NCC3CCCCC3)C(O)C(C)O2)Oc2ccc(cc2Cl)C1O (stereo not drawn) [Compound 161, cyclohexylmethyl] | 8 µg/mL (≈ 4.74 µM) | ≤ 0.06 µg/mL |
| CNC(CC(C)C)C(=O)NC1C(=O)NC(CC(N)=O)C(=O)NC2C(=O)NC3C(=O)NC(C(=O)NC(C(=O)O)c4cc(O)cc(O)c4-c4cc3ccc4O)C(OC3CC(C)(N)C(O)C(C)O3)c3ccc(c(Cl)c3)Oc3cc2cc(c3OC2OC(CO)C(O)C(O)C2OC2CC(C)(NCCCC3CCCC3)C(O)C(C)O2)Oc2ccc(cc2Cl)C1O (stereo not drawn) [Compound 208, 3-[cyclopentyl]propyl] | 2 µg/mL (≈ 1.17 µM) | ≤ 0.06 µg/mL |
| CN[C@H](CC(C)C)C(=O)N[C@H]1C(=O)N[C@@H](CC(N)=O)C(=O)N[C@H]2C(=O)N[C@H]3C(=O)N[C@H](C(=O)N[C@H](C(=O)O)c4cc(O)cc(O)c4-c4cc3ccc4O)[C@H](O[C@H]3C[C@](C)(N)[C@@H](O)[C@H](C)O3)c3ccc(c(Cl)c3)Oc3cc2cc(c3O[C@@H]2O[C@H](CO)[C@@H](O)[C@H](O)[C@H]2O[C@H]2C[C@](C)(NCc3ccc(-c4cccc(F)c4)cc3)[C@@H](O)[C@H](C)O2)Oc2ccc(cc2Cl)[C@H]1O [Compound 92, 4-[3-fluorophenyl]benzyl] | 2 µg/mL (≈ 1.13 µM) |  |
| CNC(CC(C)C)C(=O)NC1C(=O)NC(CC(N)=O)C(=O)NC2C(=O)NC3C(=O)NC(C(=O)NC(C(=O)O)c4cc(O)cc(O)c4-c4cc3ccc4O)C(OC3CC(C)(N)C(O)C(C)O3)c3ccc(c(Cl)c3)Oc3cc2cc(c3OC2OC(CO)C(O)C(O)C2OC2CC(C)(NCCCCC#Cc3ccccc3)C(O)C(C)O2)Oc2ccc(cc2Cl)C1O (stereo not drawn) [Compound 235, 6-phenyl-5-hexynyl] | 1 µg/mL (≈ 0.572 µM) | ≤ 0.06 µg/mL |
| CNC(CC(C)C)C(=O)NC1C(=O)NC(CC(N)=O)C(=O)NC2C(=O)NC3C(=O)NC(C(=O)NC(C(=O)O)c4cc(O)cc(O)c4-c4cc3ccc4O)C(OC3CC(C)(N)C(O)C(C)O3)c3ccc(c(Cl)c3)Oc3cc2cc(c3OC2OC(CO)C(O)C(O)C2OC2CC(C)(NCc3ccc(-c4ccc(O)cc4)cc3)C(O)C(C)O2)Oc2ccc(cc2Cl)C1O (stereo not drawn) [Compound 20, 4-[4-hydroxyphenyl]benzyl] |  | ≤ 0.06 µg/mL |
| CNC(CC(C)C)C(=O)NC1C(=O)NC(CC(N)=O)C(=O)NC2C(=O)NC3C(=O)NC(C(=O)NC(C(=O)O)c4cc(O)cc(O)c4-c4cc3ccc4O)C(OC3CC(C)(N)C(O)C(C)O3)c3ccc(c(Cl)c3)Oc3cc2cc(c3OC2OC(CO)C(O)C(O)C2OC2CC(C)(NCC3CCC4CCCC43)C(O)C(C)O2)Oc2ccc(cc2Cl)C1O (stereo not drawn) [Compound 190, cis-bicyclo[3.3.0]octane-2-methyl] | 8 µg/mL (≈ 4.67 µM) | ≤ 0.06 µg/mL |
| CN[C@H](CC(C)C)C(=O)N[C@H]1C(=O)N[C@@H](CC(N)=O)C(=O)N[C@H]2C(=O)N[C@H]3C(=O)N[C@H](C(=O)N[C@H](C(=O)O)c4cc(O)cc(O)c4-c4cc3ccc4O)[C@H](O[C@H]3C[C@](C)(N)[C@@H](O)[C@H](C)O3)c3ccc(c(Cl)c3)Oc3cc2cc(c3O[C@@H]2O[C@H](CO)[C@@H](O)[C@H](O)[C@H]2O[C@H]2C[C@](C)(NCc3ccc(Oc4ccc(C)cc4)cc3)[C@@H](O)[C@H](C)O2)Oc2ccc(cc2Cl)[C@H]1O [Compound 95, 4-[4-methylphenoxy]benzyl] | 1 µg/mL (≈ 0.559 µM) | ≤ 0.06 µg/mL |
| CN[C@H](CC(C)C)C(=O)N[C@H]1C(=O)N[C@@H](CC(N)=O)C(=O)N[C@H]2C(=O)N[C@H]3C(=O)N[C@H](C(=O)N[C@H](C(=O)O)c4cc(O)cc(O)c4-c4cc3ccc4O)[C@H](O[C@H]3C[C@](C)(N)[C@@H](O)[C@H](C)O3)c3ccc(c(Cl)c3)Oc3cc2cc(c3O[C@@H]2O[C@H](CO)[C@@H](O)[C@H](O)[C@H]2O[C@H]2C[C@](C)(NCc3ccc(OCc4ccc(Cl)cc4)cc3)[C@@H](O)[C@H](C)O2)Oc2ccc(cc2Cl)[C@H]1O [Compound 93, 4-[4-chlorobenzyloxy]benzyl] | 1 µg/mL (≈ 0.549 µM) | ≤ 0.06 µg/mL |
| CNC(CC(C)C)C(=O)NC1C(=O)NC(CC(N)=O)C(=O)NC2C(=O)NC3C(=O)NC(C(=O)NC(C(=O)O)c4cc(O)cc(O)c4-c4cc3ccc4O)C(OC3CC(C)(N)C(O)C(C)O3)c3ccc(c(Cl)c3)Oc3cc2cc(c3OC2OC(CO)C(O)C(O)C2OC2CC(C)(NCc3ccc(Oc4ccc(OC)cc4)cc3)C(O)C(C)O2)Oc2ccc(cc2Cl)C1O (stereo not drawn) [Compound 98, 4-[4-methoxyphenoxy]benzyl] | 1 µg/mL (≈ 0.554 µM) | ≤ 0.06 µg/mL |
| CCN(CC)CCOc1ccc(CNC2(C)CC(OC3C(Oc4c5cc6cc4Oc4ccc(cc4Cl)C(OC4CC(C)(N)C(O)C(C)O4)C4NC(=O)C(NC(=O)C6NC(=O)C(CC(N)=O)NC(=O)C(NC(=O)C(CC(C)C)NC)C(O)c6ccc(c(Cl)c6)O5)c5ccc(O)c(c5)-c5c(O)cc(O)cc5C(C(=O)O)NC4=O)OC(CO)C(O)C3O)OC(C)C2O)cc1 (stereo not drawn) [Compound 83, 4-[2-[N,N-diethylamino]ethoxy]benzyl] | 0.5 µg/mL (≈ 0.278 µM) | 0.5 µg/mL (≈ 0.278 µM) |
| CCOc1cc(CNC2(C)CC(OC3C(Oc4c5cc6cc4Oc4ccc(cc4Cl)C(OC4CC(C)(N)C(O)C(C)O4)C4NC(=O)C(NC(=O)C6NC(=O)C(CC(N)=O)NC(=O)C(NC(=O)C(CC(C)C)NC)C(O)c6ccc(c(Cl)c6)O5)c5ccc(O)c(c5)-c5c(O)cc(O)cc5C(C(=O)O)NC4=O)OC(CO)C(O)C3O)OC(C)C2O)ccc1OCC1CCCCC1 (stereo not drawn) [Compound 105, 4-[cyclohexylmethoxy]-3-ethoxybenzyl] | 1 µg/mL (≈ 0.544 µM) |  |
| CNC(CC(C)C)C(=O)NC1C(=O)NC(CC(N)=O)C(=O)NC2C(=O)NC3C(=O)NC(C(=O)NC(C(=O)O)c4cc(O)cc(O)c4-c4cc3ccc4O)C(OC3CC(C)(N)C(O)C(C)O3)c3ccc(c(Cl)c3)Oc3cc2cc(c3OC2OC(CO)C(O)C(O)C2OC2CC(C)(NCc3ccc(CCc4ccccc4)cc3)C(O)C(C)O2)Oc2ccc(cc2Cl)C1O (stereo not drawn) [Compound 100, 4-[(2-phenyl)ethyl]benzyl] | 2 µg/mL (≈ 1.12 µM) | ≤ 0.06 µg/mL |
| CNC(CC(C)C)C(=O)NC1C(=O)NC(CC(N)=O)C(=O)NC2C(=O)NC3C(=O)NC(C(=O)NC(C(=O)O)c4cc(O)cc(O)c4-c4cc3ccc4O)C(OC3CC(C)(N)C(O)C(C)O3)c3ccc(c(Cl)c3)Oc3cc2cc(c3OC2OC(CO)C(O)C(O)C2OC2CC(C)(NCc3ccc(N4CCC(C)CC4)cc3)C(O)C(C)O2)Oc2ccc(cc2Cl)C1O (stereo not drawn) [Compound 129, 4-[4-methyl-1-piperidino]benzyl] |  | ≤ 0.06 µg/mL |
| CNC(CC(C)C)C(=O)NC1C(=O)NC(CC(N)=O)C(=O)NC2C(=O)NC3C(=O)NC(C(=O)NC(C(=O)O)c4cc(O)cc(O)c4-c4cc3ccc4O)C(OC3CC(C)(N)C(O)C(C)O3)c3ccc(c(Cl)c3)Oc3cc2cc(c3OC2OC(CO)C(O)C(O)C2OC2CC(C)(NCc3ccc(N4CCOCC4)cc3)C(O)C(C)O2)Oc2ccc(cc2Cl)C1O (stereo not drawn) [Compound 147, 4-morpholinobenzyl] |  | ≤ 0.06 µg/mL |
| CNC(CC(C)C)C(=O)NC1C(=O)NC(CC(N)=O)C(=O)NC2C(=O)NC3C(=O)NC(C(=O)NC(C(=O)O)c4cc(O)cc(O)c4-c4cc3ccc4O)C(OC3CC(C)(N)C(O)C(C)O3)c3ccc(c(Cl)c3)Oc3cc2cc(c3OC2OC(CO)C(O)C(O)C2OC2CC(C)(NCc3ccc(-c4ccc(C)cc4)c(C)c3)C(O)C(C)O2)Oc2ccc(cc2Cl)C1O (stereo not drawn) [Compound 225, 4-[4-methylphenyl]-3-methylbenzyl] | 4 µg/mL (≈ 2.24 µM) |  |
| CNC(CC(C)C)C(=O)NC1C(=O)NC(CC(N)=O)C(=O)NC2C(=O)NC3C(=O)NC(C(=O)NC(C(=O)O)c4cc(O)cc(O)c4-c4cc3ccc4O)C(OC3CC(C)(N)C(O)C(C)O3)c3ccc(c(Cl)c3)Oc3cc2cc(c3OC2OC(CO)C(O)C(O)C2OC2CC(C)(NCc3ccc([N+](=O)[O-])cc3)C(O)C(C)O2)Oc2ccc(cc2Cl)C1O (stereo not drawn) [Compound 78, 4-nitrobenzyl] |  | ≤ 0.06 µg/mL |
| CNC(CC(C)C)C(=O)NC1C(=O)NC(CC(N)=O)C(=O)NC2C(=O)NC3C(=O)NC(C(=O)NC(C(=O)O)c4cc(O)cc(O)c4-c4cc3ccc4O)C(OC3CC(C)(N)C(O)C(C)O3)c3ccc(c(Cl)c3)Oc3cc2cc(c3OC2OC(CO)C(O)C(O)C2OC2CC(C)(NCc3ccc(OCC(O)CO)cc3)C(O)C(C)O2)Oc2ccc(cc2Cl)C1O (stereo not drawn) [Compound 177, 4-[2,3-dihydroxypropoxy]benzyl] | 16 µg/mL (≈ 9.03 µM) |  |
| CNC(CC(C)C)C(=O)NC1C(=O)NC(CC(N)=O)C(=O)NC2C(=O)NC3C(=O)NC(C(=O)NC(C(=O)O)c4cc(O)cc(O)c4-c4cc3ccc4O)C(OC3CC(C)(N)C(O)C(C)O3)c3ccc(c(Cl)c3)Oc3cc2cc(c3OC2OC(CO)C(O)C(O)C2OC2CC(C)(NCc3c(C)c(C)c(C)c(C)c3C)C(O)C(C)O2)Oc2ccc(cc2Cl)C1O (stereo not drawn) [Compound 73] | 2 µg/mL (≈ 1.14 µM) |  |
| CNC(CC(C)C)C(=O)NC1C(=O)NC(CC(N)=O)C(=O)NC2C(=O)NC3C(=O)NC(C(=O)NC(C(=O)O)c4cc(O)cc(O)c4-c4cc3ccc4O)C(OC3CC(C)(N)C(O)C(C)O3)c3ccc(c(Cl)c3)Oc3cc2cc(c3OC2OC(CO)C(O)C(O)C2OC2CC(C)(NCc3ccc([S+]([O-])c4ccccc4)cc3)C(O)C(C)O2)Oc2ccc(cc2Cl)C1O (stereo not drawn) [Compound 159, 4-[phenylsulfinyl]benzyl] | 8 µg/mL (≈ 4.43 µM) |  |
| CCCCCCCCc1ccc(-c2ccc(CNC3(C)CC(OC4C(Oc5c6cc7cc5Oc5ccc(cc5Cl)C(OC5CC(C)(N)C(O)C(C)O5)C5NC(=O)C(NC(=O)C7NC(=O)C(CC(N)=O)NC(=O)C(NC(=O)C(CC(C)C)NC)C(O)c7ccc(c(Cl)c7)O6)c6ccc(O)c(c6)-c6c(O)cc(O)cc6C(C(=O)O)NC5=O)OC(CO)C(O)C4O)OC(C)C3O)cc2)cc1 (stereo not drawn) [Compound 21] | 8 µg/mL (≈ 4.28 µM) |  |
| CNC(CC(C)C)C(=O)NC1C(=O)NC(CC(N)=O)C(=O)NC2C(=O)NC3C(=O)NC(C(=O)NC(C(=O)O)c4cc(O)cc(O)c4-c4cc3ccc4O)C(OC3CC(C)(N)C(O)C(C)O3)c3ccc(c(Cl)c3)Oc3cc2cc(c3OC2OC(CO)C(O)C(O)C2OC2CC(C)(NCc3ccc(OC(C)=O)c(OC)c3)C(O)C(C)O2)Oc2ccc(cc2Cl)C1O (stereo not drawn) [Compound 99, 4-acetoxy-3-methoxybenzyl] | 32 µg/mL (≈ 18.1 µM) |  |
